Reference: patent publication US6437128B1, “Cribrostatins 3-5” (Arizona Board of Regents, priority 2001, dated 2002)
≈ marks a conversion by molar mass, not a printed value. Where two headings read alike, the source gives them in different places.

Assays:
[1] = tested on: Stenotrophomonas maltophilia (ATCC 13637); test: Antimicrobial disk diffusion; type: cell-based
[2] = tested on: Streptococcus pneumoniae (ATCC 6303); test: Antimicrobial disk diffusion; type: cell-based
[3] = tested on: Neisseria gonorrhoeae (ATCC 49226); test: Antimicrobial disk diffusion; type: cell-based
[4] = tested on: Enterobacter cloacae (ATCC 13047); test: Antimicrobial disk diffusion; type: cell-based
[5] = tested on: Penicillin-resistant N. gonorrhoeae (clinical isolate); test: Antimicrobial disk diffusion; type: cell-based
[6] = tested on: Enterococcus faecalis (ATCC 29212); test: Antimicrobial disk diffusion; type: cell-based
[7] = tested on: Bacillus subtilis (Presque Isle 620); test: Antimicrobial disk diffusion; type: cell-based
[8] = tested on: Escherichia coli (ATCC 25922); test: Antimicrobial disk diffusion; type: cell-based
[9] = tested on: Candida albicans (ATCC 90028); test: Antimicrobial disk diffusion; type: cell-based
[10] = tested on: Staphylococcus aureus (ATCC 29213); test: Antimicrobial disk diffusion; type: cell-based
[11] = tested on: Micrococcus luteus (Presque Isle 456); test: Antimicrobial disk diffusion; type: cell-based
[12] = tested on: Cryptococcus neoformans (ATCC 90112); test: Antimicrobial disk diffusion; type: cell-based
[13] = tested on: BXPC-3 (Pancreas-a); test: ASU-CRI minipanel of human cancer cell lines; type: cell-based; conditions: Pancreas-a BXPC-3
Text: (§1) Individual cell line response values are provided in the Experimental.

[14] = tested on: KM20L2 (Colon); test: ASU-CRI minipanel of human cancer cell lines; type: cell-based
Text: as §1

[15] = tested on: OVCAR-3 (Ovarian); test: ASU-CRI minipanel of human cancer cell lines; type: cell-based; conditions: Ovarian OVCAR-3
Text: as §1

[16] = tested on: SF-295 (CNS); test: ASU-CRI minipanel of human cancer cell lines; type: cell-based; conditions: CNS SF-295
Text: as §1

[17] = tested on: NCI-H460 (Lung-NSC); test: ASU-CRI minipanel of human cancer cell lines; type: cell-based
Text: as §1

[18] = tested on: DU-145 (Prostate); test: ASU-CRI minipanel of human cancer cell lines; type: cell-based; conditions: Prostate DU-145
Text: as §1

[19] = tested on: P388 lymphocytic leukemia; test: in vitro murine P388 lymphocytic leukemia (PS) cell growth inhibition; type: cell-based; conditions: for GI50: Mouse Leukemia P388; for PS ED50 (P388 ED50): in vitro P388 lymphocytic leukemia
Text: The fractions obtained from the 1988-89 recollection of Cribrochalina so. (See: Pettit, G. R.; Collins, J. C.; Herald, D. L.; Doubek, D. L.; Boyd, M. R.; Schmidt, J. M.; Hooper, J. N. A.; Tackett, L. P. Can. J. Cheim. 1992, 70, 1170-1175) beginning with the 195 g dichloromethane partition fraction were re-examined guided by bioassay results using the murine P388 lymphocytic leukemia.
as §1

[20] = tested on: OVCAR-3; test: NCI 60-cell screen; type: cell-based, human; conditions: averaged, quadruplicate, upper limit 10^−5 M
[21] = tested on: T-47D; test: NCI 60-cell screen; type: cell-based, human; conditions: averaged, quadruplicate, upper limit 10^−5 M
[22] = tested on: NCI-H522; test: NCI 60-cell screen; type: cell-based, human; conditions: averaged, quadruplicate, upper limit 10^−5 M
[23] = tested on: HOP-62; test: NCI 60-cell screen; type: cell-based, human; conditions: averaged, quadruplicate, upper limit 10^−5 M
[24] = tested on: CCRF-CEM; test: NCI 60-cell screen; type: cell-based, human; conditions: averaged, quadruplicate, upper limit 10^−5 M
[25] = tested on: MDA-MB-231/ATCC; test: NCI 60-cell screen; type: cell-based, human; conditions: averaged, quadruplicate, upper limit 10^−5 M
[26] = tested on: MDA-N; test: NCI 60-cell screen; type: cell-based, human; conditions: averaged, quadruplicate, upper limit 10^−5 M
[27] = tested on: ACHN; test: NCI 60-cell screen; type: cell-based, human; conditions: averaged, quadruplicate, upper limit 10^−5 M
[28] = tested on: MOLT-4; test: NCI 60-cell screen; type: cell-based, human; conditions: averaged, quadruplicate, upper limit 10^−5 M
[29] = tested on: A549/ATCC; test: NCI 60-cell screen; type: cell-based, human; conditions: averaged, quadruplicate, upper limit 10^−5 M
[30] = tested on: HL-60 (TB); test: NCI 60-cell screen; type: cell-based, human; conditions: averaged, quadruplicate, upper limit 10^−5 M
[31] = tested on: NCI-H226; test: NCI 60-cell screen; type: cell-based, human; conditions: averaged, quadruplicate, upper limit 10^−5 M
[32] = tested on: MDA-MB-435; test: NCI 60-cell screen; type: cell-based, human; conditions: averaged, quadruplicate, upper limit 10^−5 M
[33] = tested on: SR; test: NCI 60-cell screen; type: cell-based, human; conditions: averaged, quadruplicate, upper limit 10^−5 M
[34] = tested on: HS578T; test: NCI 60-cell screen; type: cell-based, human; conditions: averaged, quadruplicate, upper limit 10^−5 M
[35] = tested on: UACC-62; test: NCI 60-cell screen; type: cell-based, human; conditions: averaged, quadruplicate, upper limit 10^−5 M
[36] = tested on: RXF-393; test: NCI 60-cell screen; type: cell-based, human; conditions: averaged, quadruplicate, upper limit 10^−5 M
[37] = tested on: SF-295; test: NCI 60-cell screen; type: cell-based, human; conditions: averaged, quadruplicate, upper limit 10^−5 M
[38] = tested on: MALME-3M; test: NCI 60-cell screen; type: cell-based, human; conditions: averaged, quadruplicate, upper limit 10^−5 M
[39] = tested on: 786-O; test: NCI 60-cell screen; type: cell-based, human; conditions: averaged, quadruplicate, upper limit 10^−5 M
[40] = tested on: KM 12; test: NCI 60-cell screen; type: cell-based, human; conditions: averaged, quadruplicate, upper limit 10^−5 M
[41] = tested on: NCI-H460; test: NCI 60-cell screen; type: cell-based, human; conditions: averaged, quadruplicate, upper limit 10^−5 M
[42] = tested on: COLO 205; test: NCI 60-cell screen; type: cell-based, human; conditions: averaged, quadruplicate, upper limit 10^−5 M
[43] = tested on: PC-3; test: NCI 60-cell screen; type: cell-based, human; conditions: averaged, quadruplicate, upper limit 10^−5 M
[44] = tested on: MCF7; test: NCI 60-cell screen; type: cell-based, human; conditions: averaged, quadruplicate, upper limit 10^−5 M
[45] = tested on: SW-620; test: NCI 60-cell screen; type: cell-based, human; conditions: averaged, quadruplicate, upper limit 10^−5 M
[46] = tested on: IGROV1; test: NCI 60-cell screen; type: cell-based, human; conditions: averaged, quadruplicate, upper limit 10^−5 M
[47] = tested on: SK-MEL-5; test: NCI 60-cell screen; type: cell-based, human; conditions: averaged, quadruplicate, upper limit 10^−5 M
[48] = tested on: NCI 60-cell in vitro panel; test: NCI 60-cell in vitro panel, mean panel; type: cell-based, human; conditions: average ±SEM from the 40 cell lines that yielded GI50 values for both 4a and 5
Text: as §1

[49] = tested on: OVCAR-8; test: NCI 60-cell screen; type: cell-based, human; conditions: averaged, quadruplicate, upper limit 10^−5 M
[50] = tested on: SF-539; test: NCI 60-cell screen; type: cell-based, human; conditions: averaged, quadruplicate, upper limit 10^−5 M
[51] = tested on: OVCAR4; test: NCI 60-cell screen; type: cell-based, human; conditions: averaged, quadruplicate, upper limit 10^−5 M
[52] = tested on: LOX IMVI; test: NCI 60-cell screen; type: cell-based, human; conditions: averaged, quadruplicate, upper limit 10^−5 M
[53] = tested on: SN12C; test: NCI 60-cell screen; type: cell-based, human; conditions: averaged, quadruplicate, upper limit 10^−5 M
[54] = tested on: SNB-75; test: NCI 60-cell screen; type: cell-based, human; conditions: averaged, quadruplicate, upper limit 10^−5 M
[55] = tested on: U251; test: NCI 60-cell screen; type: cell-based, human; conditions: averaged, quadruplicate, upper limit 10^−5 M
[56] = tested on: MCF7/ADR-RES; test: NCI 60-cell screen; type: cell-based, human; conditions: averaged, quadruplicate, upper limit 10^−5 M
[57] = tested on: RPMI-8226; test: NCI 60-cell screen; type: cell-based, human; conditions: averaged, quadruplicate, upper limit 10^−5 M
[58] = tested on: SF-268; test: NCI 60-cell screen; type: cell-based, human; conditions: averaged, quadruplicate, upper limit 10^−5 M
[59] = tested on: HOP-92; test: NCI 60-cell screen; type: cell-based, human; conditions: averaged, quadruplicate, upper limit 10^−5 M
[60] = tested on: K-562; test: NCI 60-cell screen; type: cell-based, human; conditions: averaged, quadruplicate, upper limit 10^−5 M

CC1=C(N)C(=O)c2c(ccnc2C)C1=O [Cribrostatin 1, cribrostatin 1, reference compound]
Minimum inhibitory concentration [1]: * (No inhibition at 100 μg/disk)
Minimum inhibitory concentration [2]: * (No inhibition at 100 μg/disk)
Minimum inhibitory concentration [3]: 0.39-0.78 μg/disk
Minimum inhibitory concentration [4]: * (No inhibition at 100 μg/disk)
Minimum inhibitory concentration [5]: 0.39-0.78 μg/disk
Minimum inhibitory concentration [6]: * (No inhibition at 100 μg/disk)
Minimum inhibitory concentration [7]: * (No inhibition at 100 μg/disk)
Minimum inhibitory concentration [8]: * (No inhibition at 100 μg/disk)
Minimum inhibitory concentration [9]: * (No inhibition at 100 μg/disk)
Minimum inhibitory concentration [10]: * (No inhibition at 100 μg/disk)
Minimum inhibitory concentration [11]: * (No inhibition at 100 μg/disk)
Minimum inhibitory concentration [12]: * (No inhibition at 100 μg/disk)

C/C=C(/C)C(=O)OC[C@H]1C2=C(C=C3[C@H]4c5c(O)c(OC)c(C)c(O)c5C(=O)[C@@H](C(=O)N31)N4C)C(=O)C(C)=C(OC)C2=O [Cribrostatin 5, cribrostatin 5]
Minimum inhibitory concentration ([2]; listed as 4b): * (No inhibition at 100 μg/disk)
GI50 [13]: 0.29 µg/mL (≈ 0.501 µM)
GI50 [14]: 0.14 µg/mL (≈ 0.242 µM)
GI50 [15]: 0.18 µg/mL (≈ 0.311 µM)
GI50 [16]: 0.36 µg/mL (≈ 0.622 µM)
GI50 [17]: 0.22 µg/mL (≈ 0.38 µM)
GI50 [18]: 0.30 µg/mL (≈ 0.519 µM)
GI50 [19]: 0.045 µg/mL (≈ 0.0778 µM)
PS ED50 (P388 ED50) ([19]; listed as cribrostatin 5): 0.045 µg/mL
Minimum inhibitory concentration [7]: * (No inhibition at 100 μg/disk)
Minimum inhibitory concentration ([11]; listed as 4b): 50-100 μg/disk

cribrostatin 3
negative log10 GI50 [20]: 5.74
Minimum inhibitory concentration [1]: * (No inhibition at 100 μg/disk)
negative log10 GI50 [21]: 5.19
negative log10 GI50 [22]: 5.41
negative log10 GI50 [23]: 5.27
negative log10 GI50 [24]: 5.37
Minimum inhibitory concentration [2]: * (No inhibition at 100 μg/disk)
negative log10 GI50 [25]: 5.06
negative log10 GI50 [26]: 5.72
negative log10 GI50 [27]: 5.02
negative log10 GI50 [28]: 5.31
negative log10 GI50 [29]: 5.46
negative log10 GI50 [30]: 5.51
GI50 [13]: >1 µg/mL
GI50 [14]: >1 µg/mL
GI50 [15]: 0.77 µg/mL
GI50 [16]: >1 µg/mL
GI50 [17]: >1 µg/mL
GI50 [18]: >1 µg/mL
GI50 [19]: 2.49 µg/mL
PS ED50 (P388 ED50) [19]: 2.5 µg/mL
negative log10 GI50 [31]: 5.15
Minimum inhibitory concentration [3]: 0.0975-0.195 μg/disk
negative log10 GI50 [32]: 5.74
negative log10 GI50 [33]: 5.47
negative log10 GI50 [34]: 5.20
negative log10 GI50 [35]: 5.60
negative log10 GI50 [36]: 5.31
negative log10 GI50 [37]: 5.44
Minimum inhibitory concentration [4]: * (No inhibition at 100 μg/disk)
negative log10 GI50 [38]: 6.21
negative log10 GI50 [39]: 5.23
negative log10 GI50 [40]: 5.31
negative log10 GI50 [41]: 5.52
negative log10 GI50 [42]: 5.23
negative log10 GI50 [43]: 5.70
negative log10 GI50 [44]: 5.33
negative log10 GI50 [45]: 5.44
Minimum inhibitory concentration [5]: 0.39-0.78 μg/disk
Minimum inhibitory concentration [6]: * (No inhibition at 100 μg/disk)
negative log10 GI50 [46]: 5.14
negative log10 GI50 [47]: 5.96
Minimum inhibitory concentration [7]: * (No inhibition at 100 μg/disk)
GI50 [48]: 4.27 µM
negative log10 GI50 [49]: 5.06
negative log10 GI50 [50]: 5.32
negative log10 GI50 [51]: 5.28
negative log10 GI50 [52]: 5.39
Minimum inhibitory concentration [8]: * (No inhibition at 100 μg/disk)
Minimum inhibitory concentration [9]: * (No inhibition at 100 μg/disk)
negative log10 GI50 [53]: 5.21
negative log10 GI50 [54]: 5.32
negative log10 GI50 [55]: 5.49
negative log10 GI50 [56]: 5.34
Minimum inhibitory concentration [10]: * (No inhibition at 100 μg/disk)
negative log10 GI50 [57]: 5.07
Minimum inhibitory concentration [11]: * (No inhibition at 100 μg/disk)
negative log10 GI50 [58]: 5.20
Minimum inhibitory concentration [12]: * (No inhibition at 100 μg/disk)
negative log10 GI50 [59]: 5.02
negative log10 GI50 [60]: 5.13
